# In patent US20210355106A1, “NEW AMINO-PYRIMIDONYL-PIPERIDINYL DERIVATIVES, A PROCESS FOR THEIR PREPARATION AND PHARMACEUTICAL COMPOSITIONS CONTAINING THEM” (LES LABORATOIRES SERVIER, priority 2018, published 2021):
# Tests used:
# [1] = system: Z138 mantle cell lymphoma tumour cell lines; experiment: In vitro cytotoxicity, MTT assay; type: cell-based; conditions: Homo sapiens, Z-138; Z138 cells, exposed to the test compounds for 96 hours
# In short: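 MTT viability read-out: after 96 hours of compound treatment, Z138 mantle cell lymphoma cells received MTT for 4 hours, and formazan production was quantified by absorbance at 540 nm.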
# [2] = target: T1, USP7 (Homo sapiens, UniProt Q93009, C315A); experiment: Inhibition of USP7 by Fluorescence Intensity (FLINT) readings, Ubiquitin-Rhodamine-110 substrate; type: biochemical; conditions: 0.25 nM His-His-USP7 (aa208-560), 60 minutes at 30° C. preincubation; Ki determined from IC50 according to Cer et al.
# T1 construct: 0.25 nM His-His-USP7 (aa208-560, |C315A|) was incubated with compound; His-His (N)
# T1 sequence (Q93009 208-560 C315A): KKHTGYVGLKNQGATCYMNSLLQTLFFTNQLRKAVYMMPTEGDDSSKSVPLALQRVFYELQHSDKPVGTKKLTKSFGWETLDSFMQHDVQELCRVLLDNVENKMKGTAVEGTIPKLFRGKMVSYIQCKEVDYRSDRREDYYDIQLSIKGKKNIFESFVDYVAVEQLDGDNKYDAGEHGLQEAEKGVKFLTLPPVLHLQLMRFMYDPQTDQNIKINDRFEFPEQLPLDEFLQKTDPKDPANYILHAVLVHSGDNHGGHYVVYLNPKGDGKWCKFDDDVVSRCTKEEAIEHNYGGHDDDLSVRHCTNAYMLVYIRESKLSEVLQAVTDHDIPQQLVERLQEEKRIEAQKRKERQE
# In short: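 Kinetic rate of Rhodamine-110 release from ubiquitin substrate (50 nM or 4 μM), read every 3 min for 21 min, after 60 min, 30 °C preincubation of 0.25 nM USP7 catalytic domain C315A with compound. Bicine pH 8.0 buffer, 10% DMSO; 11-point IC50 vs DMSO and no-enzyme controls, converted to Ki.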
structure (smiles),measurement,setting,value
"NCc1ccc(Oc2ncn(C[C@@]3(O)CCN(C(=O)[C@@H]4CCN(C(=O)c5cc(Cl)cc(Cl)c5)C[C@H]4c4ccccc4)CC3(F)F)c(=O)c2N)cc1 [Example 222, 5-amino-6-[4-(aminomethyl)phenoxy]-3-[[(4S)-1-[(3R,4R)-1-(3,5-dichlorobenzoyl)-3-phenyl-piperidine-4-carbonyl]-3,3-difluoro-4-hydroxy-4-piperidyl]methyl]pyrimidin-4-one]",IC50,[1],74.2 nM
same,Ki,[2],0.558 nM
"Nc1c(Oc2ccc(F)cc2)ncn(CC2(O)CCN(C(=O)[C@@H]3CCN(C(=O)c4cncc(-n5cccc5)c4)C[C@H]3c3ccccc3)CC2)c1=O [Example 163, 5-amino-6-(4-fluorophenoxy)-3-[[4-hydroxy-1-[(3R,4R)-3-phenyl-1-(5-pyrrol-1-ylpyridine-3-carbonyl)piperidine-4-carbonyl]-4-piperidyl]methyl]pyrimidin-4-one]",IC50,[1],1.41 nM
same,Ki,[2],9.76 nM
"COc1cc(Oc2ncn(C[C@@]3(O)CCN(C(=O)[C@@H]4CCN(Cc5ncccn5)C[C@H]4c4ccccc4)CC3(F)F)c(=O)c2N)ccc1F [Example 215, 5-amino-3-[[(4S)-3,3-difluoro-4-hydroxy-1-[(3R,4R)-3-phenyl-1-(pyrimidin-2-ylmethyl)piperidine-4-carbonyl]-4-piperidyl]methyl]-6-(4-fluoro-3-methoxy-phenoxy)pyrimidin-4-one]",IC50,[1],24.6 nM
same,Ki,[2],54.1 nM
"Cc1ccc(-c2nc(C)c(C(=O)N3CC[C@@H](C(=O)N4CCC(O)(Cn5cnc(Oc6cccc(OC(F)(F)F)c6)c(N)c5=O)CC4)[C@H](c4ccccc4)C3)s2)cn1 [Example 27, 5-amino-3-[(4-hydroxy-1-((3R,4R)-1-[4-methyl-2-(6-methylpyridin-3-yl)-1,3-thiazole-5-carbonyl]-3-phenylpiperidine-4carbonyl}piperidin-4-yl)methyl]-6-[3-(trifluoromethoxy)phenoxy]pyrimidin-4(3H)-one]",IC50,[1],17 nM
same,Ki,[2],8.8 nM
Nc1c(Oc2ccc(F)cc2)ncn(CC2(O)CCN(C(=O)[C@@H]3CCN(C(=O)Nc4cccc(Br)c4)C[C@H]3c3ccccc3)CC2)c1=O [Example 83],IC50,[1],8.5 nM
same,Ki,[2],42 nM
Cc1ccc(-c2nc(C)c(C(=O)N3CC[C@@H](C(=O)N4CCC(O)(Cn5cnc(Oc6cccc(C(F)(F)F)c6)c(N)c5=O)CC4)[C@H](c4ccccc4)C3)s2)cn1 [Example 26],IC50,[1],20 nM
same,Ki,[2],6.1 nM
"CN(C(=O)N1CC[C@@H](C(=O)N2CCC(O)(Cn3cnc(Oc4ccc(F)cc4)c(N)c3=O)CC2)[C@H](c2ccccc2)C1)c1ccccc1 [Example 78, (3R,4R)-4-[4-[[5-amino-4-(4-fluorophenoxy)-6-oxo-pyrimidin-1-yl]methyl]-4-hydroxy-piperidine-1-carbonyl]-N-methyl-N,3-diphenyl-piperidine-1-carboxamide]",IC50,[1],15 nM
same,Ki,[2],58 nM
"Cc1nc(N2CCCC2)sc1C(=O)N1CC[C@@H](C(=O)N2CCC(O)(Cn3cnc(Oc4ccc(F)cc4)c(N)c3=O)CC2)[C@H](c2ccccc2)C1 [Example 65, 5-amino-6-(4-fluorophenoxy)-3-[(4-hydroxy-1-{(3R,4R)-1-[4-methyl-2-(pyrrolidin-1-yl)-1,3-thiazole-5-carbonyl]-3-phenylpiperidine-4-carbonyl]piperidin-4-yl)methyl]pyrimidin-4(3H)-one]",IC50,[1],7.66 nM
same,Ki,[2],4.2 nM
"CCOc1cccc(C(=O)N2CC[C@@H](C(=O)N3CCC(O)(Cn4cnc(Oc5ccc(F)cc5)c(N)c4=O)CC3)[C@H](c3ccccc3)C2)c1 [Example 55, 5-amino-3-({1-[(3R,4R)-1-(3-ethoxybenzoyl)-3-phenylpiperidine-4-carbonyl]-4-hydroxypiperidin-4-yl)methyl)-6-(4-fluorophenoxy)pyrimidin-4(3H)-one]",IC50,[1],12 nM
same,Ki,[2],15 nM
Cc1cccc(C(=O)N2CC[C@@H](C(=O)N3CCC(O)(Cn4cnc(Oc5ccc(F)cc5)c(N)c4=O)CC3)[C@H](c3ccccc3)C2)n1 [Example 93],IC50,[1],86.4 nM
same,Ki,[2],51 nM
"Cc1nc(N2CCOCC2)sc1C(=O)N1CC[C@@H](C(=O)N2CCC(O)(Cn3cnc(Oc4ccc(F)cc4)c(N)c3=O)CC2)[C@H](c2ccccc2)C1 [Example 64, 5-amino-6-(4-fluorophenoxy)-3-[(4-hydroxy-1-{(3R,4R)-1-[4-methyl-2-(morpholin-4-yl)-1,3-thiazole-5-carbonyl]-3-phenylpiperidine-4-carbonyl)piperidin-4-yl)methyl]pyrimidin-4(3H)-one]",IC50,[1],8.39 nM
same,Ki,[2],6.4 nM
"COc1cc(Cl)cc(Oc2ncn(CC3(O)CCN(C(=O)[C@@H]4CCN(C(=O)c5sc(-c6ccc(C)nc6)nc5C)C[C@H]4c4ccccc4)CC3)c(=O)c2N)c1 [Example 23, 5-amino-6-(3-chloro-5-methoxyphenoxy)-3-((4-hydroxy-1-((3R,4R)-1-[4-methyl-2-(6-methylpyridin-3-yl)-1,3-thiazole-5-carbonyl]-3-phenylpiperidine-4-carbonyl}piperidin-4-yl)methyl]pyrimidin-4(3/I)-one]",IC50,[1],2.77 nM
same,Ki,[2],7.46 nM
COc1cc(Oc2ncn(CC3(O)CCN(C(=O)[C@@H]4CCN(C(=O)c5sc(-c6ccc(C)nc6)nc5C)C[C@H]4c4ccccc4)CC3)c(=O)c2N)ccc1F [Example 25],IC50,[1],2.3 nM
same,Ki,[2],2.9 nM
COc1cc(Oc2ncn(C[C@@]3(O)CCN(C(=O)[C@@H]4CCN(C(=O)c5sc(-c6ccc(C)nc6)nc5C)C[C@H]4c4ccccc4)CC3(F)F)c(=O)c2N)ccc1F [Example 179],IC50,[1],1.34 nM
same,Ki,[2],5.58 nM
"Cc1cc(C)nc(CN2CC[C@@H](C(=O)N3CC[C@](O)(Cn4cnc(Oc5ccc(F)cc5)c(N)c4=O)C(F)(F)C3)[C@H](c3ccccc3)C2)n1 [Example 206, 5-amino-3-[[(4S)-1-[(3R,4R)-1-[(4,6-dimethylpyrimidin-2-yl)methyl]-3-phenyl-piperidine-4-carbonyl]-3,3-difluoro-4-hydroxy-4-piperidyl]methyl]-6(4-fluorophenoxy)pyrimidin-4-one]",IC50,[1],20.5 nM
same,Ki,[2],37.2 nM
Cc1ccc(-c2c(Cl)sc(C(=O)N3CC[C@@H](C(=O)N4CCC(O)(Cn5cnc(Oc6ccc(F)cc6)c(N)c5=O)CC4)[C@H](c4ccccc4)C3)c2F)cn1 [Example 107],IC50,[1],7.64 nM
same,Ki,[2],3.3 nM
"Nc1c(Oc2ccc(F)cc2)ncn(CC2(O)CCN(C(=O)[C@@H]3CCN(C(=O)c4cncc(C(F)(F)F)c4)C[C@H]3c3ccccc3)CC2)c1=O [Example 122, 5-amino-6-(4-fluorophenoxy)-3-[(4-hydroxy-1-{(3R,4R)-3-phenyl-1-[5-(trifluoromethyl)pyridine-3-carbonyl]piperidine-4-carbonyl}piperidin-4-yl)methyl]pyrimidin-4(3H)-one]",IC50,[1],23 nM
same,Ki,[2],13.6 nM
COc1cc(Oc2ncn(C[C@@]3(O)CCN(C(=O)[C@@H]4CCN(Cc5nc(C)cc(C)n5)C[C@H]4c4ccccc4)CC3(F)F)c(=O)c2N)ccc1F [Example 217],IC50,[1],23.1 nM
same,Ki,[2],42.6 nM
Cc1cnc(CN2CC[C@@H](C(=O)N3CC[C@](O)(Cn4cnc(Oc5ccc(F)cc5)c(N)c4=O)C(F)(F)C3)[C@H](c3ccccc3)C2)cn1 [Example 201],IC50,[1],7.5 nM
same,Ki,[2],23.9 nM
